Data reported in patent publication US20050026911A1, “Benzotriazapinone salts and methods for using same” (priority 2003, published 2005).

Target: T1, gastrin (CCK2) receptors (Rattus norvegicus, UniProt P30553)
T1 construct: The stomach was excised and flushed with ca. 1 ml of unbuffered physiological saline solution; from tissue; host or cells: isolated whole stomach of immature rats (ca. 21 days old)
T1 sequence (P30553 1-452): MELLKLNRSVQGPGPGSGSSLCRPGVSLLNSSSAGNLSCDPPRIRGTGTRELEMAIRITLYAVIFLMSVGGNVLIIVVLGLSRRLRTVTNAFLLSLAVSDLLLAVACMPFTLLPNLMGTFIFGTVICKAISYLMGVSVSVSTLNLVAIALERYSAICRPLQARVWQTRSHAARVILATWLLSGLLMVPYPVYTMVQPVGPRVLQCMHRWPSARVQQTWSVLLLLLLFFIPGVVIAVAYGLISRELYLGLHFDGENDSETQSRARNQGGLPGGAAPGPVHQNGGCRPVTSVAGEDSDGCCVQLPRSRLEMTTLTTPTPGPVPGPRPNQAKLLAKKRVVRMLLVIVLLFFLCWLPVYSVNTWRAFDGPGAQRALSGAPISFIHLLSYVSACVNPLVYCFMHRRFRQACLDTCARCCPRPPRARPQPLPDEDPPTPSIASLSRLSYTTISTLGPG
Assay: gastrin (CCK2) antagonist activity in an immature rat stomach assay
Conditions: pentagastrin dose-response curves, acid secretion, read-out: pKB rat stomach (converted)
Procedure: The compounds of the examples were tested for gastrin (CCK2) antagonist activity in an immature rat stomach assay. The procedure was as follows:
The oesophagus of immature rats (33-50 g, ca. 21 days old) was ligated at the level of the cardiac sphincter and the duodenal sphincter was cannulated. The stomach was excised and flushed with ca. 1 ml of unbuffered physiological saline solution. The fundus was punctured and cannulated. A further 4-5 ml of unbuffered solution was flushed through the stomach to ensure the preparation was not leaking. […] The stomach was continuously perfused at a rate of 1 ml min^−1 with unbuffered solution gassed with 100% O2 with the perfusate passing over an internally referenced pH-electrode fixed 12 cm above the stomach.
After 120 min of stabilisation the drugs were added directly to the serosal solution in the organ bath and after a further 60 min cumulative pentagastrin dose-response curves were started.

Structure (SMILES)	Kb [nM]
CNc1cc(NC(=O)CN2N=C(C3CCCCC3)c3ccccc3N(CC(=O)C(C)(C)C)C2=O)ccc1OC [Example 105, 2-[5-Cyclohexyl-1-(3,3-dimethyl-2-oxo-butyl)-2-oxo-1,2-dihydro-3H-1,3,4-benzotriazepin-3-yl]-N-(4-methoxy-3-methylamino-phenyl)-acetamide]	27.5
CC(C)(C)C(=O)CN1C(=O)N(CC(=O)Nc2cccc(C(=O)O)c2)N=C(C2CCCCC2)c2c(F)cccc21 [Example 113, 3-{2-[5-Cyclohexyl-1-(3,3-dimethyl-2-oxo-butyl)-6-fluoro-2-oxo-1,2-dihydro-3H-1,3,4-benzotriazepin-3-yl]-acetylamino}-benzoic acid]	6.03
CC(C)(C)C(=O)CN1C(=O)N(CC(=O)Nc2cccc(O)c2)N=C(C2CCCCC2)c2ccccc21 [Example 84, 2-[5-Cyclohexyl-1-(3,3-dimethyl-2-oxo-butyl)-2-oxo-1,2-dihydro-3H-1,3,4-benzotriazepin-3-yl]-N-(3-hydroxy-phenyl)-acetamide]	27.5
CNc1cc(NC(=O)CN2N=C(C3CCCCC3)c3ccccc3N(CC(O)C(C)(C)C)C2=O)cc(C(=O)OC)c1 (stereo not drawn) [Example 78, 3-{2-[5-Cyclohexyl-1 (−2-hydroxy-3,3-dimethyl-butyl)-2-oxo-1,2-dihydro-3H-1,3,4-benzotriazepin-3-yl]-acetylamino}-5-methylamino-benzoic acid methyl ester]	324
CC(C)(C)C(=O)CN1C(=O)N(CC(=O)Nc2ccc3c(ccn3CC(=O)O)c2)N=C(C2CCCCC2)c2ccccc21 [Example 117, (5-{2-[5-Cyclohexyl-1-(3,3-dimethyl-2-oxo-butyl)-2-oxo-1,2-dihydro-3H-1,3,4-benzotriazepin-3-yl]-acetylamino}-indol-1-yl)-acetic acid]	27.5
CC(C)(C)C(=O)CN1C(=O)N(CC(=O)Nc2cccc(CSCC(=O)O)c2)N=C(C2CCCCC2)c2ccccc21 [Example 71, (3-{2-[5-Cyclohexyl-1-(3,3-dimethyl-2-oxo-butyl)-2-oxo-1,2-dihydro-3H-1,3,4-benzotriazepin-3-yl]-acetylamino}-benzylsulfanyl)-acetic acid]	3.8
CC1CCC(C2=NN(CC(=O)Nc3cccc(CC(=O)O)c3)C(=O)N(CC(=O)C(C)(C)C)c3ccccc32)CC1 (stereo not drawn) [Example 103, (3-{2-[1-(3,3-Dimethyl-2-oxo-butyl)-5-(4-methyl-cyclohexyl)-2-oxo-1,2-dihydro-3H-1,3,4-benzotriazepin-3-yl]-acetylamino}-phenyl)-acetic acid]	3.98
Cc1cc(NC(=O)CN2N=C(C3CCCCC3)c3ccccc3N(CC(=O)C(C)(C)C)C2=O)cc(C(=O)O)c1 [Example 91, 3-{2-[5-Cyclohexyl-1-(3,3-dimethyl-2-oxo-butyl)-2-oxo-1,2-dihydro-3H-1,3,4-benzotriazepin-3-yl]-acetylamino}-5-methyl-benzoic acid]	40.7
CNc1ccccc1NC(=O)CN1N=C(C2CCCCC2)c2ccccc2N(CC(=O)C(C)(C)C)C1=O [Example 101, 2-[5-Cyclohexyl-1-(3,3-dimethyl-2-oxo-butyl)-2-oxo-1,2-dihydro-3H-1,3,4-benzotriazepin-3-yl]-N-(2-methylamino-phenyl)-acetamide]	129
CC(C)(CO)C(=O)CN1C(=O)N(CC(=O)Nc2cccc(CC(=O)O)c2)N=C(C2CCCCC2)c2ccccc21 [Example 110, (3-{2-[5-Cyclohexyl-1-(4-hydroxy-3,3-dimethyl-2-oxo-butyl)-2-oxo-1,2-dihydro-3H-1,3,4-benzotriazepin-3-yl]-acetylamino}-phenyl)-acetic acid]	93.3
CN(c1cccc(NC(=O)CN2N=C(C3CCCCC3)c3ccccc3N(CC(=O)C3CCCC3)C2=O)c1)c1nnn[nH]1 [Example 124, 2-[5-Cyclohexyl-1-(2-cyclopentyl-2-oxo-ethyl)-2-oxo-1,2-dihydro-3H-1,3,4-benzotriazepin-3-yl]-N-(3-[methyl-(2H-tetrazol-5-yl)-amino]-phenyl)-acetamide]	2.14
CC(C)(C)C(=O)CN1C(=O)N(CC(=O)Nc2cccc(-n3ccnc3)c2)N=C(C2CCCCC2)c2ccccc21 [Example 89, 2-[5-Cyclohexyl-1-(3,3-dimethyl-2-oxo-butyl)-2-oxo-1,2-dihydro-3H-1,3,4-benzotriazepin-3-yl]-N-[3-(1H-imidazol-1-yl)-phenyl]-acetamide]	871
CC(C)(C)C(=O)CN1C(=O)N(CC(=O)Nc2cc(C(=O)O)cc(C(=O)O)c2)N=C(C2CCCCC2)c2ccccc21 [Example 39, 5-{2-[5-Cyclohexyl-1-(3,3-dimethyl-2-oxo-butyl)-2-oxo-1,2-dihydro-3H-1,3,4-benzotriazepin-3-yl]-acetylamino}-isophthalic acid]	7.59
CC1CCC(C2=NN(CC(=O)Nc3cccc(C(=O)O)c3)C(=O)N(CC(=O)C(C)(C)C)c3ccccc32)CC1 (stereo not drawn) [Example 102, 3-{2-[1-(3,3-Dimethyl-2-oxo-butyl)-5-(4-methyl-cyclohexyl)-2-oxo-1,2-dihydro-3H-1,3,4-benzotriazepin-3-yl]-acetylamino}-benzoic acid]	0.776
O=C(O)Cc1cccc(NC(=O)CN2N=C(C3CCCCC3)c3ccccc3N(CC(=O)C3CC3)C2=O)c1 [Example 119]	24.5
Cc1cccc(NNC(=O)CN2N=C(C3CCCCC3)c3ccccc3N(CC(=O)C(C)(C)C)C2=O)c1 [Example 46, [5-Cyclohexyl-1-(3,3-dimethyl-2-oxo-butyl)-2-oxo-1,2-dihydro-3H-1,3,4-benzotriazepin-3-yl]-acetic acid N′-m-tolyl-hydrazide]	174
CC(C)(C)C(=O)CN1C(=O)N(CC(=O)Nc2cccc(C(=O)NS(C)(=O)=O)c2)N=C(C2CCCCC2)c2ccccc21 [Example 40]	22.9
CCOCCNc1cccc(NC(=O)CN2N=C(C3CCCCC3)c3ccccc3N(CC(=O)C(C)(C)C)C2=O)c1 [Example 42, 2-[5-Cyclohexyl-1-(3,3-dimethyl-2-oxo-butyl)-2-oxo-1,2-dihydro-3H-1,3,4-benzotriazepin-3-yl]-N-[3-(2-ethoxy-ethylamino)-phenyl)-acetamide]	105
CNCCN(C)c1cccc(NC(=O)CN2N=C(C3CCCCC3)c3ccccc3N(CC(=O)C(C)(C)C)C2=O)c1 [Example 143, 2-[5-Cyclohexyl-1-(3,3-dimethyl-2-oxo-butyl)-2-oxo-1,2-dihydro-3H-1,3,4-benzotriazepin-3-yl]-N-{3-[methyl-(2-methylamino-ethyl)-amino]-phenyl}-acetamide]	117
CC1(C(=O)CN2C(=O)N(CC(=O)Nc3cccc(SCC(=O)O)c3)N=C(C3CCCCC3)c3ccccc32)CCCCC1 [Example 134, [3-(2-{5-Cyclohexyl-1-[2-(1-methyl-cyclohexyl)-2-oxo-ethyl]-2-oxo-1,2-dihydro-3H-1,3,4-benzotriazepin-3-yl}-acetylamino)-phenylsulfanyl]-acetic acid]	17.4
O=C(CN1N=C(C2CCCCC2)c2ccccc2N(CC(=O)C2CCCCC2)C1=O)Nc1cccc(-c2nc(=O)o[nH]2)c1 [Example 111, 2-[5-Cyclohexyl-1-(2-cyclohexyl-2-oxo-ethyl)-2-oxo-1,2-dihydro-3H-1,3,4-benzotriazepin-3-yl]-N-[3-(5-oxo-2,5-dihydro-[1,2,4]oxadiazol-3-yl)-phenyl]-acetamide]	2.19
